Data: patent US5401760A, “Heterocyclic compounds” (Ono Pharmaceutical Co., Ltd., priority 1988, dated 1995)
Where a SMILES comes first, the peptide text is derived from it.

Experiments:
[1] = target: T1, prolyl endopeptidase (Bos taurus, UniProt Q9XTA2); test: Prolyl endopeptidase inhibitory activity in vitro; type: biochemical; conditions: enzyme purified from bovine brain, pH 7.5, 37° C., substrate N-benzyloxycarbonyl-glycyl-prolyl-p-nitroanilide, read-out: Concentration for 50% inhibition IC50
T1 construct: prolyl endopeptidase which was purified from bovine brain; from tissue; host or cells: bovine brain (purified enzyme)
T1 sequence (Q9XTA2 whole entry): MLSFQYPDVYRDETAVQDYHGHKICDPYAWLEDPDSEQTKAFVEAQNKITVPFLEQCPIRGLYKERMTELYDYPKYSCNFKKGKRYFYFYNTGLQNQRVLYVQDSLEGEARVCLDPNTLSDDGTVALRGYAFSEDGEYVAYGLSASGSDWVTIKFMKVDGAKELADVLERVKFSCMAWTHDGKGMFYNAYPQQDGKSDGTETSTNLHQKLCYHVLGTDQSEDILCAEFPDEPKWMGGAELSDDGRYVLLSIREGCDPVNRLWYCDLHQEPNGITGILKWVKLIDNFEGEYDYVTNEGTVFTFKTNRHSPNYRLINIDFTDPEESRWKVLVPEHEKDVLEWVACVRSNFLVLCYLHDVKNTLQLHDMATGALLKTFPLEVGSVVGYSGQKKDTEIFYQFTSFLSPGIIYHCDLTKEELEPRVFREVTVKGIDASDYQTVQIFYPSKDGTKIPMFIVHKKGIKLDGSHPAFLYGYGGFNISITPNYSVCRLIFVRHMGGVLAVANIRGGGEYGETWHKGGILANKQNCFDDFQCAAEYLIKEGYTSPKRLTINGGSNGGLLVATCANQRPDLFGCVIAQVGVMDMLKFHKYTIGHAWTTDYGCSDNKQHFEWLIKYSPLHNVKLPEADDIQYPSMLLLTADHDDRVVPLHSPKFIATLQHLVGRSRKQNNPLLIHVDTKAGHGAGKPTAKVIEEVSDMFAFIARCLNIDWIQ
Procedure: For example, in a standard laboratory test, results in the following were given.
Prolyl endopeptidase inhibitory activity in vitro
Inhibitory activity of prolyl endopeptidase in vitro was measured by the following test system.
A mixed solution of 20 mM tris-HCl buffer (pH 7.5; 935 μl; containing 10 mM EDTA and 10 mM mercaptoethanol), a solution of a compound of the present invention in DMSO (10 μl) and a solution of prolyl endopeptidase which was purified from bovine brain (0.13 unit ml; prepared by the method described in J. Biochem., 94, 1179 (1983) ) in tris-HCl buffer (15 μl) was preincubated for 15 mins at 37° C.
To the solution, 5 mM of N-benzyloxycarbonyl-glycyl-prolyl-p-nitroanilide (40 μl) in a mixture of 40% dioxane-60% water was added. The solution was incubated for 1 min at the same temperature.
Optical absorption (a1) at 405 nm of the solution, and optical absorption (a2) at 405 nm of the solution after more 30 mins' incubation at 37° C. were measured.
Optical absorptions (b1 and b2) of the solutions using DMSO instead of the solution of the compound of the present invention were also measured.
Inhibitory ratio was calculated by the following expression and IC50 (required concentration for 50% inhibition) was obtained (See Protein, Nucleic acid and Enzyme 25(6), 513, 1980.). [formula] Toxicity

[2] = test system: prolyl endopeptidase; conditions: literature, J. Neurochem., 41, 69 (1983); cited from earlier work

Compound	IC50 [1]	inhibit prolyl endopeptidase [2]
CCOC(=O)C(=O)[C@@H]1CCCN1C(=O)C(CCCCCc1ccccc1)C(C)C (mixture of isomers) [2 (h), 2-[(2S)-1-[(2RS)-2-isopropyl-7-phenylheptanoyl]pyrrolidin-2-yl]-2-oxoacetic acid ethyl ester]	17 nM	
CCC(O)[C@@H]1CSCN1C(=O)C1CCCCN1C(=O)CCc1ccccc1 (mixture of isomers) [15 (a), (1RS)-1-[(4R)-3-[1-(3-phenylpropanoyl)piperidin-2-ylcarbonyl]thiazolidin-4-yl]propan-1-ol]	120 nM	
CN(Cc1ccccc1)C(=O)CCC(=O)N1CCC[C@H]1C(O)C(=O)OCc1ccccc1 (mixture of isomers) [Example 6, (2RS)-2-[(2S)-1-[3-(N-benzyl-N-methylcarbamoyl)propanoyl]pyrrolidin-2-yl]-2-hydroxyacetic acid benzyl ester]	3000 nM	
CCOC(=O)C(F)(F)C(O)[C@@H]1CCCN1C(=O)CCC(=O)N(C)Cc1ccccc1 (mixture of isomers) [Example 12, (3RS)-3-[(2S)-1-[3-(N-benzyl-N-methylcarbamoyl)propanoyl]pyrrolidin-2-yl]-3-hydroxy-2,2-difluoropropionic acid ethyl ester]	69000 nM	
CCC(O)[C@@H]1CCCN1C(=O)CCC(=O)N(C)Cc1ccccc1 (mixture of isomers) [Example 15, (1RS)-1-[(2S)-1-[3-(N-benzyl-N-methylcarbamoyl)propanoyl]pyrrolidin-2-yl]-propan-1-ol]	1500 nM	
CCOC(=O)C(=O)[C@@H]1CCCN1C(=O)CCC(=O)NC1c2ccccc2-c2ccccc21 [2 (b), 2-[(2S)-1-[3-[N-(9-fluorenyl)carbamoyl]propanoyl]pyrrolidin-2-yl]-2-oxoacetic acid ethyl ester]	1.8 nM	
CCOC(=O)C(=O)[C@@H]1CCCN1C(=O)CCC(=O)N(Cc1ccc(C(F)(F)F)cc1)c1ccccc1 [2 (d), 2-[(2S)-1-[3-[N-(4-trifluoromethylphenylmethyl)-N-phenylcarbamoyl]propanoyl]pyrrolidin-2-yl]-2-oxoacetic acid ethyl]	0.85 nM	
CCOC(=O)C(=O)[C@@H]1CCCN1C(=O)CCC(=O)N(Cc1ccccc1)c1ccccc1 [2 (g), 2-[(2S)-1-[3-(N-benzyl-N-phenylcarbamoyl)propanoyl]pyrrolidin-2-yl]-2-oxoacetic acid ethyl ester]	1.7 nM	
CCOC(=O)C(=O)[C@@H]1CCCN1C(=O)CCC(=O)NCc1ccc(Cl)cc1Cl [2 (l), 2-[(2S)-1-[3-[N-(2,4-dichloro-phenylmethyl)carbamoyl]propanoyl]pyrrolidin-2-yl]-2-oxoacetic acid ethyl ester]	1.8 nM	
O=C(CCCc1ccccc1)N1CSC[C@H]1C(=O)N1CSC[C@H]1C(O)c1ccccc1 (stereo partly drawn) [17 (a), (1RS)-1-phenyl-1-[(4R)-3-[(4R)-3-(4-phenylbutanoly)thiazolidin-4-ylcarbonyl]thiazolidin-4-yl]methanol]	180 nM	
CCOC(=O)C(=O)[C@@H]1CCCN1C(=O)CCC(=O)N(C)Cc1ccccc1 [Example 2, 2-[(2S)-1-[3-(N-benzyl-N-methylcarbamoyl)propanoyl]pyrrolidin-2-yl]-2-oxoacetic acid ethyl ester]	3 nM	
CN(Cc1ccccc1)C(=O)CCC(=O)N1CCC[C@H]1C(=O)C(=O)OCc1ccccc1 [Example 7, 2-[(2S)-1-[3-(N-benzyl-N-methylcarbamoyl)propanoyl]pyrrolidin-2-yl]-2-oxoacetic acid benzyl ester]	1.2 nM	
CN(Cc1ccccc1)C(=O)CCC(=O)N1CCC[C@H]1C(=O)C(F)(F)F [Example 9, 1-[(2S)-1-[3-(N-benzyl-N-methylcarbamoyl)propanoyl]pyrrolidin-2-yl]-2,2,2-trifluoroethan-1-one]	23 nM	
CCOC(=O)C(F)(F)C(=O)[C@@H]1CCCN1C(=O)CCC(=O)N(C)Cc1ccccc1 [Example 13, 3-[(2S)-1-[3-(N-benzyl-N-methylcarbamoyl)propanoyl]pyrrolidin-2-yl]-3-oxo-2,2-difluoropropionic acid ethyl ester]	100 nM	
CN(Cc1ccccc1)C(=O)CCC(=O)N1CCC[C@H]1C1OCCO1 [Example 19, 2-[(2S)-1-[3-(N-benzyl-N-methylcarbamoyl)propanoyl]pyrrolidin-2-yl]-1,3-dioxolane]	14000 nM	
O=C(NCC(=O)N1CCC[C@H]1C(=O)CCl)OCc1ccccc1 [N-benzyloxycarbonyl-glycyl-L-prolyl-chloromethane] (HELM PEPTIDE1{[O=C(OCc1ccccc1)[*:2]].G.P.[ClC[*:1]]}$$$$V2.0)		strongly inhibit
